Measurements as given in patent US20070212745A1, “BETA-GLUCOSIDASE AND A PROCESS FOR EXTRACTION THEREOF” (priority 2006, published 2007).

System: β glucosidase
Test: Effect of FeSO4 on β glucosidase
Type: biochemical, Rauvolfia serpentina
Conditions: for Fold activity enhanced: relative to 0 mM
Method: Rauvolfia serpentina (Sarpgandha) plants were raised from root cuttings at the glass house of Central Institute of Medicinal and Aromatic Plants (CIMAP), Lucknow by following standard agronomic practices. The extraction of the glucosidase enzyme was optimized with respect to buffer, pH, protecting and stabilizing agents to obtain maximum extractable activity. All the operations of enzyme isolation were carried out at 0-4° C. unless specified otherwise. The extraction medium of present invention also relates to a process for the extraction of a B glucosidase from plant tissues from a natural source and useful for the cleaving of β-1,4 linkage of PNPG, said process comprising: homogenizing the plant tissue in a cold extraction medium (1 g tissue/3 ml). Flowers of Rauvolfia serpentina were homogenized in 100 mM K-phosphate buffer (pH 6.0) including 10 mM β-Mercapto ethanol and 2 mM E.D.T.A. (Ethylene Diamine Tetra Acetic Acid). The tissue homogenate was centrifuged at 12,000×g for 30 min at 4° C. and the clear supernatant was collected. Assays specific for the determination of optimum pH, optimum temperature, stability and activation were performed.
Enzyme activity was assayed using the modified method described by Stevens et al, assay mixture in a total volume of 200 μL contained 2.5 mM p-nitrophenyl β-D-glucopyranoside in 100 mM Citrate-Phosphate buffer (pH 5) at defined temperatures with 10 μL of enzyme preparation. After 15 min of incubation time the reaction was stopped by adding 800 μL of 1M Sodium carbonate and the absorbance of p-nitrophenol (the product of reaction) was measured at wavelength 405 nm.
Calculation of Units: The enzyme activity was expressed in terms of μmole of p-nitrophenol formed per minute using the molar extinction coefficient (E) 18,350 m^−1 cm^−1 [Estibalitz, O., Richard, O. A., and Ioannis, Z., 2001. The role of β-glucosidase in biosynthesis of 2,5-dimethyl-4-hydroxy-3 (2H)-furanone in strawberry. Flavour and Fragrance J., 16: 81-84.]

Structure (SMILES): O=S(=O)([O-])[O-].[Fe+2] [FeSO4]
- β glucosidase Activity (I.U.) (FeSO4 Conc. 1 mM): 71.93 I.U.
- Fold activity enhanced (FeSO4 Conc. 1 mM): 1.74 Fold
- β glucosidase Activity (I.U.) (FeSO4 Conc. 5 mM): 335.69 I.U.
- Fold activity enhanced (FeSO4 Conc. 5 mM): 8.11 Fold
- β glucosidase Activity (I.U.) (FeSO4 Conc. 10 mM): 627.79 I.U.
- Fold activity enhanced (FeSO4 Conc. 10 mM): 15.16 Fold
- effect of FeSO4 on enzyme activity (in words): activation
